{
  "source": "patent US20210145830A1",
  "about": "“MATERIALS AND METHODS FOR TREATING CANCER” (Mayo Foundation for Medical Education and Research, priority 2018, published 2021)",
  "assay_type_in_all_cases": "cell-based",
  "key": {"Naïve T cells": {"system": "Naïve T cells", "test": "Naïve T cell proliferation assay (PMA/Ionomycin)", "conditions": "PMA 5 ng/ml + Ionomycin 0.1 μg/ml; TP0903 10-65 nM; 3 days", "description": "(§1) FIG. 21A-E. TP0903 modulates naïve T cells function upon stimulation of PMA/Ionomycin in vitro. A. Naïve T cell proliferation assay in the presence of TP0903. Naïve T cells were stimulated with 5 ng/ml of PMA and 0.1 μg/ml of Ionomycin in the absence or in the increasing dose of TP0903 (10-65 nM) for 3 days. […] B. At the end of the expansion on day 3, T cells were stained with inhibitory receptors. […] C. Naïve T cell degranulation assay and cytokine production in the presence of TP0903. Naïve T cells were stimulated with 50 ng/ml of PMA and 1 μg/ml of Ionomycin for 4 hours in the presence of increasing doses of TP0903 (10-65 nM). […] D. Western blot analysis of p-LCK and GATA-3 inhibition by TP0903 in naïve T cells. Naïve T cells were stimulated with 5 ng/ml of PMA and 0.1 ug/ml of Ionomycin in the absence (DMSO) or in the increasing dose of TP0903 (10-65 nM) for 24 hours. […] was used as loading control. E. TP0903 specifically reduces regulatory T cells (Treg). Effector T cells (Teff) were isolated by negative selection using RoboSep™ Human T Cell Isolation Kit (Stemcell Technologies). Tregs were isolated by negative selection using the human CD4^+CD127^lowCD25^+ Treg isolation kit (Stemcell Technologies). Teff and Treg were stimulated with anti-CD3/CD28 beads and 400 U/ml of IL-2. At day 5, total T cells were evaluated via CountBright quantification."}, "CART19": {"system": "CART19", "test": "T cell degranulation and intracellular cytokine assays", "description": "(§2) FIG. 22A-C. In vitro experiment for the combination of CART19 and TP0903. A. CART19 were cocultured at different effector-to-target ratio (E:T) with luciferase-positive JeKo-1. At 48 hours, cell killing was assessed by luminescence. […] The means and SEM are shown (**, p<0.005, *, p<0.05, one-way ANOVA analysis). n.s., not statistically significant. B. CART19 degranulation assay and cytokine production in the presence of TP0903. CART19 were cocultured with JeKo-1 for 4 hours in the presence of TP0903 doses of TP0903 (10-65 nM). […] C. Th2/Th1 T cell subtype analysis during CART19 expansion in the presence pf TP0903. CART19 cells were stimulated with lethally irradiated (120 Gy) JeKo-1 cell lines in the presence of increasing doses of TP0903 (10-30 nM). At the day 3, Th1 and Th2 cells were defined using CD4, CCR6, CCR4 and CXCR3 expression. […] The means and SEM are shown (*, p<0.05, one-way ANOVA analysis). n.s., not statistically significant.\nBriefly, T cells were incubated with target cells at a 1:5 ratio. After staining for CAR expression, antibodies against CD107a, CD28, CD49d and monensin were added at the time of incubation. After 4 hours, cells were harvested and stained for CD3, CD4, and Live Dead staining (Invitrogen). Cells were fixed and permeabilized (FIX & PERM Cell Fixation & Cell Permeabilization Kit, Life Technologies) and intracellular cytokine staining was then performed as indicated in the specific experiments.\nT cells were incubated with target cells at a 1:5 ratio (experiments were done using JEKO cells as well as primary B cells). Antibodies against CD107a, CD28, CD49d and monensin were added at the time of incubation.\nAfter 4 hours, cells were harvested and stained for CD3, CD4, and Live Dead staining (Invitrogen). Cells were fixed and permeabilized (FIX & PERM Cell Fixation & Cell Permeabilization Kit, Life Technologies), and intracellular cytokine staining was then performed. […] The number of CD4 and CD8 cells positively stained for cluster of differentiation 107a (CD107a) or granulocyte-macrophage colony-stimulating factor (GM-CSF) in degranulation assays were shown in FIG. 5. The number of CD4 cells positively stained for interleukin-2 (IL-2) or interleukin-4 (IL-4) in degranulation assays were shown in FIG. 6."}, "[1]": {"system": "p-LCK and GATA-3 in naïve T cells", "test": "Western blot of p-LCK and GATA-3 in naïve T cells", "description": "as §1"}, "luciferase-positive Jeko": {"system": "luciferase-positive Jeko", "test": "CART19 cytotoxicity in the presence of TP0903", "description": "FIG. 1 contains a graph showing CART19 cytotoxicity in the presence TP0903. CART19 or untransduced T cells (UTDs) were co-cultured at different effector-to-target ratios (E:T) with luciferase-positive Jeko with increasing doses of TP0903 (TP). At 24 hours, cell killing was assessed by luminescence.\nFIGS. 16A-B. A head-to-head comparison of two different combination therapy. UTDs (A) or CART19 (B) were co-cultured at different effector-to-target ratios (E:T) with luciferase-positive CD19^+ cell line in the presence of DMSO, 30 nM TP0903, or 100 nM ibrutinib. Cell killing was assessed by luminescence at 24 hours.\nas §2\nJEKO-Luc cells or primary B cells were used for cytotoxicity assay. In brief, targets were incubated at the indicated ratios with effector T cells for 4 or 16 hours. Killing was calculated either by bioluminescence imaging on a Xenogen IVIS-200 Spectrum camera (PerkinElmer, Hopkinton, Mass., USA) or by flow cytometry. For the latter, cells were harvested; Countbright beads and life/dead (Invitrogen) were added prior to analysis. Residual live target cells were CD19+L/D−.\nCART19 or UTDs were cocultured at different effector-to-target ratio (E:T) with luciferase-positive Jeko or with primary CLL cells, with increasing dose of TP0903 as indicated on the X axis. At 24 hours, cell killing was assessed by luminescence or by flow cytometry."}, "[2]": {"conditions": "T cells:targets 1:5, JEKO or primary B cells, 4 hours"}, "[3]": {"conditions": "PMA/Ionomycin, 24 hours, highest dose (65 nM)"}},
  "data": [
    {"smiles": "CN1CCN(Cc2ccc(Nc3ncc(Cl)c(Nc4ccccc4S(=O)(=O)N(C)C)n3)cc2)CC1", "note": "[TP0903]", "values": [
      {"measurement": "T cell expansion", "setting": "Naïve T cells", "value": "did not interfere"},
      {"measurement": "T cell specific degranulation or intracellular cytokines (CD107a, GM-CSF)", "setting": "CART19; CD4 and CD8 cells", "value": "did not inhibit"},
      {"measurement": "activation of CART19 cells (CD107a degranulation, intracytoplasmic IL-2, IFN-γ, GM-CSF)", "setting": "CART19; JeKo-1, 4 hours, TP0903 10-65 nM, presence or absence of TP0903", "value": "significant activation"},
      {"measurement": "secretion of IL-4", "setting": "CART19; JeKo-1, 4 hours, increasing dose of TP0903 (10-65 nM)", "value": "downregulated"},
      {"measurement": "CART cell functions", "setting": "CART19; [2]", "value": "did not impair"},
      {"measurement": "Th2 cytokines (intracellular staining)", "setting": "CART19; [2]", "value": "lowered"},
      {"measurement": "GATA-3", "setting": "[1]; [3]", "value": "modest inhibition"},
      {"measurement": "phosphorylation of LCK", "setting": "[1]; [3]", "value": "modest inhibition"},
      {"measurement": "LCK", "setting": "[1]; T cell lysates, low dose TP0903", "value": "inhibition"},
      {"measurement": "cell killing, head-to-head comparison of combinations", "setting": "luciferase-positive Jeko; 30 nM TP0903 + CART19 vs 100 nM ibrutinib + CART19, luciferase-positive CD19+ cell line, 24 hours", "value": "more synergistic killing"},
      {"measurement": "type of combination effect on cell killing", "setting": "luciferase-positive Jeko; CART19 + TP0903, from calculations", "value": "synergistic rather than an additive effect"},
      {"measurement": "cell killing assessed by luminescence", "setting": "luciferase-positive Jeko; CART19 + increasing doses of TP0903, different E:T ratios, luciferase-positive Jeko or primary CLL cells, 24 hours", "value": "robust killing at all E:T ratios"},
      {"measurement": "cytotoxic effect versus TP0903 dose", "setting": "luciferase-positive Jeko; CART19 with luciferase-positive JeKo-1, 48 hours, at a specific E:T ratio", "value": "increased cytotoxic effect was significantly correlated to increased TP0903 dose"},
      {"measurement": "antitumor activity against JeKo in vitro", "setting": "luciferase-positive Jeko; combination of CART19 cells and TP0903, low E:T ratios", "value": "synergistic antitumor activity"}
    ]}
  ]
}
